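Step 1: Grow cells in 96-well plates. Step 2: Expose to compound for 48 hours at 5 concentrations. Step 3: Interpolate endpoints linearly; if unreached, use highest concentration. GI50 marks 50% less growth. TGI is the concentration that stops growth completely.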
Assays:
Test in all cases: DTP human tumour cell line panel, 48 h
SK-MEL-28 melanoma = system: SK-MEL-28 melanoma
MDA-N = system: MDA-N
IGROV1 ovarian = system: IGROV1 ovarian
CAKI-1 renal = system: CAKI-1 renal
MOLT-4 leukemia = system: MOLT-4 leukemia
SN12C renal = system: SN12C renal
MDA-MB-231 breast = system: MDA-MB-231 breast
NCI-H460 lung = system: NCI-H460 lung
U251 CNS = system: U251 CNS
TK-10 renal = system: TK-10 renal
HCC-2998 colon = system: HCC-2998 colon

| SMILES | TGI (SK-MEL-28 melanoma) [µM] | TGI (MDA-N) [µM] | TGI (IGROV1 ovarian) [µM] | TGI (CAKI-1 renal) [µM] | TGI (MOLT-4 leukemia) [µM] | TGI (SN12C renal) [µM] | TGI (MDA-MB-231 breast) [µM] | TGI (NCI-H460 lung) [µM] | TGI (U251 CNS) [µM] | TGI (TK-10 renal) [µM] | TGI (HCC-2998 colon) [µM] | GI50 (MDA-MB-231 breast) [µM] | GI50 (SK-MEL-28 melanoma) [µM] | GI50 (IGROV1 ovarian) [µM] | GI50 (HCC-2998 colon) [µM] | GI50 (NCI-H460 lung) [µM] | GI50 (MOLT-4 leukemia) [µM] | GI50 (U251 CNS) [µM] | GI50 (SN12C renal) [µM] | GI50 (TK-10 renal) [µM] |
| --- | --- | --- | --- | --- | --- | --- | --- | --- | --- | --- | --- | --- | --- | --- | --- | --- | --- | --- | --- | --- |
| O=C(N/N=C/c1ccco1)c1cc(I)cc(I)c1O | > 50 | > 50 | > 50 | > 50 | > 50 | 38.7 |  |  |  |  |  |  |  |  |  |  |  |  |  |  |
| CCOc1cc(-c2nc3ccccn3c2/N=C/c2cc(Br)ccc2O)ccc1O | > 100 | > 100 | 49.1 | > 100 | > 100 | > 100 | > 100 | > 100 | 40.2 | 48.7 |  |  |  |  |  |  |  |  |  |  |
| COc1c(Br)cc(CC(N)=O)c(O)c1Br | > 100 |  | > 100 | > 100 | > 100 | > 100 |  |  | > 100 | > 100 | > 100 |  |  |  |  |  |  |  |  |  |
| Nc1ccc2[nH]c(-c3cccc(Cl)c3)cc(=O)c2c1 | > 100 |  | > 100 |  | > 100 | > 100 | > 100 | > 100 | 70.4 | 8.55 | 54.4 |  |  |  |  |  |  |  |  |  |
| O=C(Cc1ccccc1)NN1C(=O)/C(=C\c2ccc([N+](=O)[O-])cc2)SC1=Nc1ccccc1 | > 100 |  | > 100 |  | > 100 | > 100 | > 100 | > 100 | > 100 | > 100 | > 100 |  |  |  |  |  |  |  |  |  |
| N#Cc1cc2c(cc1Cl)Sc1nccn1S2(=O)=O | 7.33 |  | 13.6 | 3.6 | 2.54 | 20.8 | 12.4 | 32.2 | 3.21 | 28 |  |  |  |  |  |  |  |  |  |  |
| C=CCOCCCCC(C(C)=O)C(=O)OC (centres undefined) | > 100 |  | > 100 | > 100 | > 100 | > 100 |  | > 100 | > 100 | > 100 | > 100 |  |  |  |  |  |  |  |  |  |
| CCOn1c(C2(CC3CCN(C(=O)c4ccccc4)CC3)OCCO2)cc2ccccc21 | 27.7 | 30.1 | 31.7 | 30.2 | 31.3 | 30.9 | 30 | 27.1 | 29.9 | 24.7 |  |  |  |  |  |  |  |  |  |  |
| Cn1c2ccccc2n2c(=O)c3cc([N+](=O)[O-])ccc3c(C#N)c12 | > 100 | > 100 | > 100 |  | > 100 |  |  | > 100 | > 100 | > 100 | > 100 |  |  |  |  |  |  |  |  |  |
| O=C(O)C(CS)N=c1c2ccccc2n(O)c2ccccc12 (centres undefined) | > 100 |  | > 100 | > 100 | > 100 | > 100 |  | > 100 | > 100 | > 100 | > 100 |  |  |  |  |  |  |  |  |  |
| CC1CC(=O)Nc2nc3ccccc3n21 (centres undefined) |  | > 100 | > 100 | > 100 | > 100 |  | > 100 | > 100 | > 100 | > 100 |  |  |  |  |  |  |  |  |  |  |
| COC(=O)/C=C/c1cc(OC)c(OC)c(OC)c1 | > 100 |  | > 100 | > 100 | > 100 | > 100 |  | > 100 |  | > 100 | > 100 |  |  |  |  |  |  |  |  |  |
| O=C(Cc1ccc([N+](=O)[O-])cc1)OCC#CCOC(=O)Cc1ccc([N+](=O)[O-])cc1 |  | > 10 | > 10 |  | > 10 | > 10 | > 10 | > 10 | > 10 | > 10 |  |  |  |  |  |  |  |  |  |  |
| O=C(O)C(CO)NC(=O)n1c2ccccc2c2ccccc21 (centres undefined) | > 100 |  | > 100 | > 100 | > 100 | > 100 |  | > 100 |  | > 100 | > 100 |  |  |  |  |  |  |  |  |  |
| COCc1nc2c(OC)cc(-c3nc4ccc(N5CCN(C)CC5)cc4[nH]3)c(OC)c2[nH]1 | > 100 | > 100 | > 100 | > 100 | > 100 | > 100 | > 100 | > 100 | > 100 | > 100 |  |  |  |  |  |  |  |  |  |  |
| CC(=O)OCC(OC(C)=O)C1C[C@H]2O[C@@H]3[C@H](C[C@H]2O1)O[C@@]1(C[C@@H]3C)C[C@H](C)[C@@H]2O[C@]3(C[C@@H]2O1)C[C@H]1O[C@H]2[C@H](C)[C@H]4OC(=O)CC5CC[C@H]6OC7[C@H]8O[C@]9(CC[C@H]%10CC(O)(CO)[C@H](CC[C@H]%11C[C@@H](C)C(O)(CO)C(C[C@@H]4O[C@H]2C[C@H]1O3)O%11)O%10)CC8O[C@@H]7[C@@H](O9)[C@H]6O5 (some centres undefined) | > 1 |  | > 1 | > 1 | > 1 | > 1 | > 1 | > 1 | > 1 | > 1 |  |  |  |  |  |  |  |  |  |  |
| CCCCc1ccc(Nc2nc3c(ncn3COCCO)c(=O)[nH]2)cc1 |  | > 100 | > 100 |  | > 100 | > 100 | > 100 |  | > 100 | > 100 | > 100 |  |  |  |  |  |  |  |  |  |

| SMILES | TGI (SK-MEL-28 melanoma) [µM] | TGI (MDA-N) [µM] | TGI (IGROV1 ovarian) [µM] | TGI (CAKI-1 renal) [µM] | TGI (MOLT-4 leukemia) [µM] | TGI (SN12C renal) [µM] | TGI (MDA-MB-231 breast) [µM] | TGI (NCI-H460 lung) [µM] | TGI (U251 CNS) [µM] | TGI (TK-10 renal) [µM] | TGI (HCC-2998 colon) [µM] | GI50 (MDA-MB-231 breast) [µM] | GI50 (SK-MEL-28 melanoma) [µM] | GI50 (IGROV1 ovarian) [µM] | GI50 (HCC-2998 colon) [µM] | GI50 (NCI-H460 lung) [µM] | GI50 (MOLT-4 leukemia) [µM] | GI50 (U251 CNS) [µM] | GI50 (SN12C renal) [µM] | GI50 (TK-10 renal) [µM] |
| --- | --- | --- | --- | --- | --- | --- | --- | --- | --- | --- | --- | --- | --- | --- | --- | --- | --- | --- | --- | --- |
| Brc1cccc(N=NN2CCCC2)c1 |  | > 100 | > 100 | > 100 | > 100 | > 100 | > 100 | > 100 | > 100 | > 100 |  |  |  |  |  |  |  |  |  |  |
| Cn1c([O-])nc(-n2cc[n+](C)c2)cc1=O | > 100 | > 100 | > 100 |  | > 100 | > 100 | > 100 | > 100 | > 100 | > 100 |  |  |  |  |  |  |  |  |  |  |
| Cc1cccc(C)c1NC(=O)C(=O)C1C(=O)NC(=O)NC1=O | > 100 |  | > 100 | > 100 | > 100 | > 100 |  | > 100 | > 100 | > 100 | > 100 |  |  |  |  |  |  |  |  |  |
| O=C1NC2OC(CO)C(O)C(O1)C2O (centres undefined) | > 100 |  | > 100 | > 100 | > 100 | > 100 |  | > 100 | > 100 | > 100 |  |  |  |  |  |  |  |  |  |  |
| Cc1cc2ncc3c(=O)n(NS(=O)(=O)c4ccc(N)cc4)ccc3n2n1 | > 100 | > 100 | > 100 | > 100 | > 100 | > 100 | > 100 | > 100 | > 100 | > 100 |  |  |  |  |  |  |  |  |  |  |
| CC1(C(=O)O)CCCC1C(=O)O (centres undefined) | > 100 | > 100 | > 100 | > 100 | > 100 | > 100 | > 100 | > 100 | > 100 | > 100 |  |  |  |  |  |  |  |  |  |  |
| O=C(CC1=NCCN1)c1ccccc1 | > 750 |  | > 750 | > 750 | > 750 | > 750 |  | > 511 | > 750 |  | > 750 |  |  |  |  |  |  |  |  |  |
| CC1S/C(=N/c2nnc(-c3ccccc3)o2)NC1=O (centres undefined) | > 100 | > 100 | > 100 | > 100 | > 100 | > 100 | > 100 |  | > 100 | > 100 |  |  |  |  |  |  |  |  |  |  |
| N#Cc1c(-c2ccc(F)cc2)nc(N/N=C/c2c[nH]c3ccccc23)nc1N1CCOCC1 | 4.04 |  | 79.7 |  | 9.63 | > 100 | 56.4 | 25.2 | 17.7 | 61 | > 100 | 5.16 | 1.92 | 12.8 | 9.91 | 3.48 | 1.6 | 2.16 | 16.6 | 15.5 |
| CC(C)(C)C1CCC2(CC1)c1[nH]c3ccccc3c1C1(CCC(C(C)(C)C)CC1)c1[nH]c3ccccc3c12 (centres undefined) | > 100 |  | > 100 | > 100 | > 100 | > 100 |  | > 100 | > 100 | > 100 | > 100 |  |  |  |  |  |  |  |  |  |
| O=c1[nH]nc(-c2ccccc2)c2[nH]c(-c3ccccc3)cc12 |  | > 100 | > 100 | > 100 | > 100 | > 100 |  |  |  |  |  |  |  |  |  |  |  |  |  |  |
| CN(C)S(=O)(=O)Nc1nnc(S(N)(=O)=O)s1 | > 100 |  | > 100 | > 100 | > 100 |  | > 100 | > 100 | > 100 | > 100 | > 100 |  |  |  |  |  |  |  |  |  |
| CCOC(=O)C1=C(OC(OCC)C(CC)[Se]c2ccccc2)CCCC1 (centres undefined) | > 100 |  | > 100 | > 100 | 52.1 | 34.1 |  | > 100 | 31 | > 100 | > 100 |  |  |  |  |  |  |  |  |  |
| COC1(OC)CCCCC2c3cccc(OC(C)=O)c3C21OC(C)=O (centres undefined) | > 100 |  | > 100 |  | > 100 | > 100 |  |  |  | > 100 | > 100 |  |  |  |  |  |  |  |  |  |
| CC(C)(C)c1cc(/C=C(\C#N)C(=O)NCCO)cc(C(C)(C)C)c1O | 47.1 | 48.7 | > 100 | 77.6 | 59.1 | 51.6 | 43.9 | 43.5 | 39.9 | 60.9 |  |  |  |  |  |  |  |  |  |  |
| C=C1C(=O)O[C@@]23C1CC[C@@H](C)C2CC[C@@]1(C)OC31 (some centres undefined) | 22.6 | 23.1 | 32.3 | 18.4 | 31.8 | 21.5 |  | 35.2 | 19.3 | 16.8 | 16.2 |  |  |  |  |  |  |  |  |  |

Reference: PubChem BioAssay (NCI)
